Consider 27 compounds from ChEMBL document CHEMBL4834408, “Sesquiterpenoids from Chrysanthemum indicum with Inhibitory Effects on NO Production” (J Nat Prod, 2021).

Molecules are shown by their SMILES.

The subject of one data set is RAW264.7. The experiment in a line: Inhibition of LPS induced NO production in mouse RAW264.7 cells measured after 24 hrs by Griess reagent based assay. The conditions noted are these: RAW264.7, 24 h. Type of data set: functional, cell-based. For orientation: The Griess reaction detects nitrite, a stable product of nitric oxide.
Data set [1] is described as follows: Cytotoxicity against mouse RAW264.7 cells assessed as reduction in cell viability measured after 24 hrs by MTT assay. In kind it is cell-based.

Regarding `CC1=CC[C@H]([C@](C)(O)C/C=C/C(C)(C)O)CC1=O`, in the data set with RAW264.7, the IC50 – broadly, the point on the concentration scale where inhibition reaches its midpoint – was above 100 µM. Also, the CC50 (commonly the concentration that lowers cell viability or growth by half) at 24 h in data set [1] was above 100 µM.

As to `C=C[C@](C)(CCC/C(C)=C\C(=O)C=C(C)C)O[C@@H]1O[C@H](CO)[C@@H](O)[C@H](O)[C@H]1O`, the concentration for half-maximal inhibition (IC50) in the data set with RAW264.7 came to 97.8 µM. Also, the CC50 at 24 h in data set [1] is above 100 µM.

On to `C=C[C@](C)(CCC/C(C)=C/C(=O)C=C(C)C)O[C@@H]1O[C@H](CO)[C@@H](O)[C@H](O)[C@H]1O`, for which the IC50 in the data set with RAW264.7 was above 100 µM. Also, the CC50 at 24 h in data set [1] was above 100 µM.

For `O=C(O)[C@H]1O[C@@H](Oc2cc(O)c3c(=O)cc(-c4ccc(O)c(O)c4)oc3c2)[C@H](O)[C@@H](O)[C@@H]1O`, the IC50 in the data set on RAW264.7 was above 100 µM. Moreover, in data set [1], the CC50 at 24 h is above 100 µM.

The compound `CC(=O)/C=C/[C@]1(O)C(C)(C)C[C@H](O)C[C@@]1(C)O` came in with an IC50 with RAW264.7 of 29.9 µM. The CC50 at 24 h in data set [1] is above 100 µM.

As to `C=C1C(=O)O[C@@H]2/C=C(\C)CC/C=C(\C)C[C@H](OC(=O)/C(C)=C\C)[C@@H]12`, in the data set with RAW264.7, half-maximal inhibition (IC50) required 9.9 µM. For the same compound, the CC50 at 24 h in data set [1] stood at 27 µM.

Turning to `COc1ccc([C@@H]2CC(=O)c3c(O)cc(O)cc3O2)cc1O` [HESPERETIN], the IC50 in the data set with RAW264.7 came to 31.2 µM. For the same compound, the CC50 at 24 h in data set [1] was above 100 µM.

Take `O=C(O)[C@H]1O[C@@H](Oc2cc(O)c3c(=O)cc(-c4ccc(O)cc4)oc3c2)[C@H](O)[C@@H](O)[C@@H]1O`: the IC50 in the data set on RAW264.7 is above 100 µM. For the same compound, in data set [1], the CC50 at 24 h was above 100 µM.

Turning to `COc1ccc(-c2cc(=O)c3c(O)cc(O[C@@H]4O[C@H](C(=O)O)[C@@H](O)[C@H](O)[C@H]4O)cc3o2)cc1`, inhibition in the data set on RAW264.7 was half-maximal at 92.4 µM (IC50). Also, the CC50 at 24 h in data set [1] is above 100 µM.

With `C=C1C(=O)O[C@@H]2[C@H]3C(C)=CC(=O)[C@H]3[C@@H](C)C[C@H](OC(=O)/C(C)=C\C)[C@@H]12`, the midpoint of inhibition in the data set on RAW264.7, the IC50, lay at 1.8 µM. In addition, the CC50 at 24 h in data set [1] was 22.5 µM.

For `COc1ccc(-c2cc(=O)c3c(O)cc(O[C@@H]4O[C@H](CO)[C@@H](O)[C@H](O)[C@H]4O)cc3o2)cc1` [TILIANINE], half-maximal inhibition in the data set with RAW264.7 (IC50) required 45.4 µM. The CC50 at 24 h in data set [1] was above 100 µM.

`COc1ccc(-c2cc(=O)c3c(O)cc(O)cc3o2)cc1` [ACACETIN] had an IC50 with RAW264.7 of 5.9 µM. Further, the CC50 at 24 h in data set [1] came out at 60.9 µM.

Turning to `COc1ccc(-c2cc(=O)c3c(O)cc(O)cc3o2)cc1O` [DIOSMETIN], the IC50 in the data set with RAW264.7 came to 34.5 µM.

For the compound `C=C[C@@](C)(O)C[C@H](O)/C=C(\C)CC(=O)C=C(C)C`, the IC50 with RAW264.7 was 48.4 µM. Also, the CC50 at 24 h in data set [1] is above 100 µM.

In the case of `C[C@@H]1O[C@@H](OC[C@H]2O[C@@H](Oc3cc(O)c4c(=O)cc(-c5ccc(O)c(O)c5)oc4c3)[C@H](O)[C@@H](O)[C@@H]2O)[C@H](O)[C@H](O)[C@H]1O`, in the data set on RAW264.7, the IC50 is above 100 µM. For the same compound, the CC50 at 24 h in data set [1] was above 100 µM.

For `C=C1C(=O)O[C@H]2[C@H]1[C@@H](OC(=O)C(C)CC)CC(C)=C1C[C@@H]3O[C@]3(C)[C@@H]12` (stereo partly drawn), the IC50 with RAW264.7 was found to be 3 µM. The CC50 at 24 h in data set [1] is 21.5 µM.

Regarding `CC1(C)C[C@H](O)C[C@@]2(C)OC(=O)C=C12` [LOLIOLIDE], it took 56.7 µM to reach half-maximal inhibition in the data set on RAW264.7 (IC50). The CC50 at 24 h in data set [1] was above 100 µM.

With `O=c1cc(-c2ccc(O)cc2)oc2cc(O)cc(O)c12` [APIGENIN], 18.4 µM corresponded to half-maximal inhibition in the data set on RAW264.7 (IC50). Besides, the CC50 at 24 h in data set [1] amounted to 65.1 µM.

In turn, `C=C1C(=O)O[C@@H]2[C@H]3C(C)=CC(=O)[C@@H]3[C@@H](C)C[C@H](OC(=O)/C(C)=C\C)[C@@H]12` displayed an IC50 with RAW264.7 of 27 µM. Besides, in data set [1], the CC50 at 24 h was above 100 µM.

For the compound `C=C1C(=O)O[C@H]2[C@H]1[C@@H](OC(=O)/C(C)=C\C)CC(C)=C1C[C@@H]3O[C@]3(C)[C@@H]12`, in the data set with RAW264.7, the IC50 is 0.2 µM. Besides, in data set [1], the CC50 at 24 h was found to be 21.7 µM.

The compound `C=C(C)C(O)CC[C@@](C)(O)[C@H]1CC=C(C)C(=O)C1` (stereo partly drawn) showed an IC50 in the data set with RAW264.7 above 100 µM. Further, in data set [1], the CC50 at 24 h was above 100 µM.

In the case of `O=c1cc(-c2ccc(O)cc2)oc2cc(O[C@@H]3O[C@H](CO)[C@@H](O)[C@H](O)[C@H]3O)cc(O)c12` [APIGETRIN], in the data set with RAW264.7, the half-maximal inhibitory concentration (IC50) turned out to be 53.7 µM. Moreover, in data set [1], the CC50 at 24 h was above 100 µM.

The compound `O=c1cc(-c2ccc(O)c(O)c2)oc2cc(O[C@@H]3O[C@H](CO)[C@@H](O)[C@H](O)[C@H]3O)cc(O)c12` [GALUTEOLIN] displayed an IC50 in the data set with RAW264.7 of 87.5 µM. In addition, the CC50 at 24 h in data set [1] is above 100 µM.

In the data set with RAW264.7, `C=C[C@](C)(CC/C=C(\C)CC(=O)C=C(C)C)O[C@@H]1O[C@H](CO)[C@@H](O)[C@H](O)[C@H]1O` registered an IC50 above 100 µM. The CC50 at 24 h in data set [1] is above 100 µM.

On to `COc1ccc(-c2cc(=O)c3c(O)cc(O[C@@H]4O[C@H](CO[C@@H]5O[C@@H](C)[C@H](O)[C@@H](O)[C@H]5O)[C@@H](O)[C@H](O)[C@H]4O)cc3o2)cc1` [ACACIIN], for which the IC50 in the data set on RAW264.7 was above 100 µM. For the same compound, the CC50 at 24 h in data set [1] was above 100 µM.

On to `C=C[C@](C)(CC/C=C(\C)CC(=O)CC(C)C)O[C@@H]1O[C@H](CO)[C@@H](O)[C@H](O)[C@H]1O`, for which the IC50 with RAW264.7 was above 100 µM. Besides, in data set [1], the CC50 at 24 h was above 100 µM.

In turn, `CC1=CC[C@H](C(C)(C)O)CC1=O` came in with an IC50 in the data set on RAW264.7 of 48.8 µM. Further, the CC50 at 24 h in data set [1] came to 98 µM.
